Consider 13 compounds from US20260297542A1, “HERBICIDE RESISTANT PLANTS” (SYNGENTA CROP PROTECTION AG, priority 2023, published 2026).

SMILES strings stand for the structures.

In the first experiment the target is T1, His-TEV-AtPP01 ΔcTP L479N (SEQ ID NO: 372) (Arabidopsis thaliana, UniProt P55826, L479N).
T1 construct: with cTPs removed; made in house; host or cells: E. coli BL21 (DE3), His GraviTrap, partially purified
T1 sequence (P55826 with tags, fused parts or gaps L479N): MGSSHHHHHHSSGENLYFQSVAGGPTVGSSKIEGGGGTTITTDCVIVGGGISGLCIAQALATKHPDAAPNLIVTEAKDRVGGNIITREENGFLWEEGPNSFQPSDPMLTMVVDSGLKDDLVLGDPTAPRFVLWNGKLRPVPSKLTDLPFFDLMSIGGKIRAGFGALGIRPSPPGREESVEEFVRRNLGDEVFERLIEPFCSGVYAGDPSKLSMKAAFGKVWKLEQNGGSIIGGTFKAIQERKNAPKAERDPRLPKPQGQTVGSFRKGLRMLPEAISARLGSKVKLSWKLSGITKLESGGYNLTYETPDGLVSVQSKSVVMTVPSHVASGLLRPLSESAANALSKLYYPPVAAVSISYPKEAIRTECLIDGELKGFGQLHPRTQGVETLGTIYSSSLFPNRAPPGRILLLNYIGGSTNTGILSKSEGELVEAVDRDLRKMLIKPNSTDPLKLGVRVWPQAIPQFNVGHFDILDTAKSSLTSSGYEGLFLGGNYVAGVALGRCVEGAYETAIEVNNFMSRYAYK
Kind of experiment: PPO fluorescence IC50 assay, partially purified enzyme. In kind it is biochemical.
Conditions: not given
From the text: A pET24 plasmid containing a DNA sequence encoding variants of AtPPO1 derived from Arabidopsis thaliana with cTPs removed and both a 6×His tag and TEV protease cleavage tag added at the N-terminus, codon-optimised for expression in E. coli, and under control of a T7 promoter, was synthesised by Twist Bioscience. The following variants were synthesised: WT AtPPO1 (SEQ ID NO: 370), AtPPO1 L479M (SEQ ID NO: 371), AtPPO1 L479N (SEQ ID NO: 372), AtPPO1 S305L Y426V (SEQ ID NO: 374) and AtPPO1 S305L Y426V L479M (SEQ ID NO: 373). This plasmid was expressed in E. coli BL21 (DE3) with 50 μg/mL kanamycin selection. 10 mL of overnight cultures grown at 37° C. were used to inoculate 1 L AIM (AIM-Terrific Broth Base including Trace elements, Formedium) in 2 L shake flasks. Cultures were grown at 37° C., 200 rpm for 3 hours and then overnight at 26° C. Cells were harvested centrifugation. 5-15 g of cell pellet was lysed in and resuspended in ratio of 1:1.5 in lysis buffer (20 mM Tris pH8, 500 mM sodium chloride, 10% glycerol, 1× complete Protease EDTA-free Inhibitor Tablet (Roche), 10 mM imidazole). The resuspension was sonicated at 75% using 10 cycles of 30 seconds, 40 seconds off. After sonication Triton X-100 was added to the lysates at a final concentration of 0.5%. The lysates were centrifuged at 20,000 rpm for 25 min at 4° C. Cleared lysates were loaded on His GraviTrap (Cytiva) columns, washed with 20 mL of lysis buffer and eluted in elution buffer (20 mM Tris pH8, 500 mM sodium chloride, 10% glycerol, 200 mM imidazole, 0.03% (v/v) Triton X-100). The eluate was desalted on a PD10 column and 2.5-3.2 mL was collected. Protein concentration was measured and calculated using the absorbance at 280 nm. Extracts were diluted 1 in 4 and 10 uL was analysed by SDS PAGE.
Partially purified Protoporphyrinogen Oxidase enzymes were assayed for activity using fluorescence adapted from the method of Shepherd & Dailey (Anal Biochem. 2005 344(1) 115-121). The assay was performed in black 384 well plates with a clear bottom and the total volume of the reaction mixture was 91 ul. The final assay mixture contained 100 mM K2HPO4 pH7.2, 1 mM Na2EDTA, 5 mM DTT, 20% glycerol (v/v), 0.05% Tween 20 (v/v), 1.1% DMSO (v/v), 1 uM protoporphyrinogen IX and 1.5 nM enzyme. Compounds were dissolved in DMSO at 1 mM and a 4-fold serial dilution carried out to give 8 rates. 1 ul was added to the assay mixture. This gave final compound concentrations of 11, 2.7, 0.69, 0.17, 0.04, 0.01, 0.002, 0.0007 uM. Enzyme and inhibitor were preincubated for 5 minutes prior to starting the reaction with the addition of the substrate. […] IC50s were calculated using GraphPad Prism 7.05 nonlinear regression (Table 6). Each compound was tested in duplicate.
Turning to `C#CCN1C(=O)C(F)(F)Oc2cc(F)c(-n3c(=O)n(C)c(=S)n(C)c3=O)cc21` [Herbicide B, trifludimoxazin], the midpoint of inhibition, the IC50, lay at 1 nM.

For `CS(=O)(=O)NC(=O)c1cc(Oc2ccc(C(F)(F)F)cc2Cl)ccc1[N+](=O)[O-]` [Fomesafen, fomesafen], it took 1.4 nM to reach half-maximal inhibition (IC50).

In the case of `CCOC(=O)C1(C)CC(c2cc(-n3c(=O)cc(C(F)(F)F)n(C)c3=O)c(F)cc2Cl)=NO1` (stereo not shown) [Herbicide C, 3-(2-chloro-4-fluoro-5-(3-methyl-2,6-dioxo-4-trifluoromethyl-3,6-dihydropyrimidin-1(2H)-yl)phenyl)-5-methyl-4,5-dihydroisoxazole-5-carboxylic acid ethyl ester], the IC50 (in general, the midpoint of a concentration-inhibition curve) stood at 0.9 nM.

Regarding `CCOC(=O)COc1ncccc1Oc1cc(-n2c(=O)cc(C(F)(F)F)n(C)c2=O)c(F)cc1Cl` [Herbicide A, epyrifenacil], the 50% inhibitory concentration (IC50) was found to be 0.9 nM.

In turn, `C=CCOC(=O)C(C)(C)OC(=O)c1cc(-n2c(=O)cc(C(F)(F)F)n(C)c2=O)ccc1Cl` [Butafenacil, butafenacil] had an IC50 of 0.9 nM.

For the compound `CCOC(=O)[C@]1(C)CC(c2cc(-n3c(=O)n(C)c(=S)n(C)c3=O)c(F)cc2Cl)=NO1` [Herbicide D, ethyl (5S)-3-[2-chloro-5-(3,5-dimethyl-2,6-dioxo-4-thioxo-1,3,5-triazinan-1-yl)-4-fluoro-phenyl]-5-methyl-4H-isoxazole-5-carboxylate], the IC50 amounted to 0.8 nM.

Regarding `C#CCOc1cc(-n2nc3n(c2=O)CCCC3)c(Cl)cc1Cl` [Azafenadin], the IC50 came to 0.8 nM.

Regarding `C#CCN(C)c1c(C#N)cnn1-c1nn2c(c1Cl)CCCC2` [Pyraclonil], half-maximal inhibition (IC50) was put at 1.5 nM.

With `CC(C)N(C)S(=O)(=O)NC(=O)c1cc(-n2c(=O)cc(C(F)(F)F)n(C)c2=O)c(F)cc1Cl` [Herbicide E, saflufenacil], the IC50 came to 2.6 nM.

In the case of `CCOC(=O)COc1cc(-c2nn(C)c(OC(F)F)c2Cl)c(F)cc1Cl` [Pyraflufen-ethyl, pyraflufen-ethyl], the IC50 amounted to 0.8 nM.

In turn, `CC(C)Oc1cc(-n2nc(C(C)(C)C)oc2=O)c(Cl)cc1Cl` [Oxadiazaon] gave an IC50 of 6.1 nM.

Regarding `C#CCN1C(=O)COc2cc(F)c(N3C(=O)C4=C(CCCC4)C3=O)cc21` [Flumioxazin, flumioxazin], the midpoint of inhibition, the IC50, lay at 1 nM.

Staying with this experiment, now noted: role: inhibitor; 1 uM protoporphyrinogen IX; <1.0 is below detection limit of assay.
With `COC(=O)C(C)ON=Cc1cc(-n2c(=O)cc(C(F)(F)F)n(C)c2=O)c(F)cc1Cl` (stereo not shown) [Flufenoximacil, flufenoximacil], the IC50 was 0.8 nM.
